From ChEMBL document CHEMBL4382212, “Tetrazolylpropan-2-ones as inhibitors of fatty acid amide hydrolase: Studies on structure-activity relationships and metabolic stability” (Eur J Med Chem, 2018)

Assay: Partition coefficient, log P of the compound at 5 mM by reversed phase HPLC analysis
Format: physicochemical
Details: octanol/water

logP at 5000 µM	SMILES
8	CCCCCCCCc1ccc(OCC(=O)Cn2nnc(-c3ccc(C(=O)OC)cc3)n2)cc1
2.6	CC(Oc1ccc(-c2ccccc2)cc1)C(=O)Cn1nnc(-c2ccc(C(=O)O)cc2)n1 (centres undefined)
> 8	CCCCCCCCc1ccc(OC(C)C(=O)Cn2nnc(-c3ccc(C(=O)OC)cc3)n2)cc1 (centres undefined)
> 8	CCCCCCCCc1ccc(OC(C)C(=O)Cn2nnc(-c3ccc(Cl)cc3)n2)cc1 (centres undefined)
6.2	COC(=O)c1ccc(-c2nnn(CC(=O)C(C)Oc3ccc(Oc4ccc(C(F)(F)F)cc4)cc3)n2)cc1 (centres undefined)
3.3	CC(Oc1ccc(Oc2ccc(Cl)cc2)cc1)C(=O)Cn1nnc(-c2ccc(C(=O)O)cc2)n1 (centres undefined)
6.1	CC(Oc1ccc(-c2ccccc2)cc1)C(=O)Cn1nnc(-c2ccc(Cl)cc2)n1 (centres undefined)
8	CCCCCCCCc1ccc(OCC(=O)Cn2nnc(-c3ccccc3)n2)cc1
5.3	CCCCCCCCc1ccc(OCC(=O)Cn2nnc(C(=O)O)n2)cc1
> 8	CCCCCCCCc1ccc(OC(C)C(=O)Cn2nnc(-c3ccccc3)n2)cc1 (centres undefined)
5.9	CCCCCCCCc1ccc(OC(C)C(=O)Cn2nnc(-c3ccc(C(=O)O)cc3)n2)cc1 (centres undefined)
5.3	CC(Oc1ccc(-c2ccccc2)cc1)C(=O)Cn1nnc(-c2ccccc2)n1 (centres undefined)
6.8	CC(Oc1ccc(Oc2ccc(Cl)cc2)cc1)C(=O)Cn1nnc(-c2ccc(Cl)cc2)n1 (centres undefined)
3.5	CC(Oc1ccc(Oc2ccc(C(F)(F)F)cc2)cc1)C(=O)Cn1nnc(-c2ccc(C(=O)O)cc2)n1 (centres undefined)
6.2	CC(Oc1ccc(Oc2ccc(F)cc2)cc1)C(=O)Cn1nnc(-c2ccc(Cl)cc2)n1 (centres undefined)
> 8	CCCCCCCCc1ccc(OCC(=O)Cn2nnc(-c3ccc(Cl)cc3)n2)cc1
6	CC(Oc1ccc(Oc2ccc(Cl)cc2)cc1)C(=O)Cn1nnc(-c2ccccc2)n1 (centres undefined)
2.7	CC(Oc1ccc(Oc2ccc(F)cc2)cc1)C(=O)Cn1nnc(-c2ccc(C(=O)O)cc2)n1 (centres undefined)
5.3	CC(Oc1ccc(Oc2ccc(F)cc2)cc1)C(=O)Cn1nnc(-c2ccccc2)n1 (centres undefined)
5.4	COC(=O)c1ccc(-c2nnn(CC(=O)C(C)Oc3ccc(-c4ccccc4)cc3)n2)cc1 (centres undefined)
7	CC(Oc1ccc(Oc2ccc(C(F)(F)F)cc2)cc1)C(=O)Cn1nnc(-c2ccc(Cl)cc2)n1 (centres undefined)
6.1	COC(=O)c1ccc(-c2nnn(CC(=O)C(C)Oc3ccc(Oc4ccc(Cl)cc4)cc3)n2)cc1 (centres undefined)
5.4	COC(=O)c1ccc(-c2nnn(CC(=O)C(C)Oc3ccc(Oc4ccc(F)cc4)cc3)n2)cc1 (centres undefined)
6.2	CC(Oc1ccc(Oc2ccc(C(F)(F)F)cc2)cc1)C(=O)Cn1nnc(-c2ccccc2)n1 (centres undefined)
